Converted amounts (≈) assume the structure as drawn.
Tests used:
Format in all cases: functional
Aspergillus niger = test: Antifungal activity against Aspergillus niger
Micrococcus luteus = test: Antibacterial activity against Micrococcus luteus
Staphylococcus aureus = test: Antibacterial activity against Staphylococcus aureus
Bacillus subtilis = test: Antibacterial activity against Bacillus subtilis

Row | MIC (Aspergillus niger) [mg/L] | MIC (Micrococcus luteus) [mg/L] | MIC (Staphylococcus aureus) [mg/L] | MIC (Bacillus subtilis) [mg/L] | SMILES
1 | 16.7 (≈ 39.6 µM) |  |  |  | O=C1NC(=O)/C(=C/[C@@H](O)CNC(=O)c2cc(Br)c(Br)[nH]2)N1 [MUKANADIN F]
2 |  | 33.3 (≈ 43.4 µM) | 33.3 (≈ 43.4 µM) | 33.3 (≈ 43.4 µM) | N=C1N[C@H]2N3C(=N)N[C@@H](O)[C@@]34[C@H]([C@H](CNC(=O)c3cc(Br)c[nH]3)[C@@H](CNC(=O)c3cc(Br)c(Br)[nH]3)[C@@H]4Cl)[C@@]2(O)N1 [NAGELAMIDE O]

From ChEMBL document CHEMBL1152319, “Bromopyrrole alkaloids from marine sponges of the genus Agelas” (2009)
